From patent publication US20240368121A1, “ESTROGEN RECEPTOR DEGRADERS, PHARMACEUTICAL COMPOSITIONS THEREOF, AND THEIR THERAPEUTIC APPLICATIONS” (BioTheryX, Inc., priority 2021, published 2024)

Legend:
Format in all cases: cell-based
MCF7 cells = assay: Cell viability assay ([…]-GLO, 6-day treatment); conditions: Homo sapiens, MCF7, 144 h; MCF-7 cells, 6 days, CTG; read-out: Inhibition of Cancerous Cells IC50 MCF-7
Summary of the method: (§1)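 MCF7 (MEM) and T47D (RPMI with insulin), both with 10% FBS, at 1,000 cells/well, treated with a 10-point compound dose series for 6 days, with medium and compound refreshed once. Viability read by CellTiter-Glo luminescence.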

T47D cells = assay: Cell viability assay ([…]-GLO, 6-day treatment); conditions: Homo sapiens, 144 h, 6 days, CTG, read-out: Inhibition of Cancerous Cells IC50 T47D
Summary of the method: as §1

ERα = target: T1, ERα (Homo sapiens, UniProt P03372); assay: Protein degradation assay: ERα in MCF-7 cells via western blot; conditions: 6 h; for ERα Protein Degradation 1 nM: 1 nM compound; for ERα Protein Degradation 10 nM: 10 nM compound; for ERα Protein Degradation 100 nM: 100 nM compound
T1 construct: degrading an ERα in MCF-7 cells via a western blot; endogenous in cells; host or cells: MCF-7
T1 sequence (P03372 1-595): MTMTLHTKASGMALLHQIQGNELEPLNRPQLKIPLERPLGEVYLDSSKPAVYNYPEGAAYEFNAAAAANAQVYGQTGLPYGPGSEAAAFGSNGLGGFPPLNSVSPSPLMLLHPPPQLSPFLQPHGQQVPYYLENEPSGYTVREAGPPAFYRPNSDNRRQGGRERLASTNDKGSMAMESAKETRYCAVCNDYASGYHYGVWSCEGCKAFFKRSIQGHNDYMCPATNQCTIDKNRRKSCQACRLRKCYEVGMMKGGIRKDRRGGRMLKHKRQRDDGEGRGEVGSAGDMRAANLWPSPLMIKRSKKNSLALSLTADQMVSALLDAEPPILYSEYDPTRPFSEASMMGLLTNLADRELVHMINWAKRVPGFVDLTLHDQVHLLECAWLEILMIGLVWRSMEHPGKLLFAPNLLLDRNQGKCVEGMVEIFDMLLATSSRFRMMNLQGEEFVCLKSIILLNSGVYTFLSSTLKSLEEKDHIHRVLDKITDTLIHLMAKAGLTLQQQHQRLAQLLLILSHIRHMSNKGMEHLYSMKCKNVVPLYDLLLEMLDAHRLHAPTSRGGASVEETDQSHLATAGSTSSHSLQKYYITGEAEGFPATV
Summary of the method: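 MCF-7 cells in MEM/10% FBS with insulin, seeded 300,000/well, treated 6 h at set concentrations (e.g., 1 nM–1 μM). Whole-cell lysates immunoblotted for ERα with GAPDH loading control, chemiluminescent detection; percentage degradation reported in binned categories (≥50%, 25–50%, 10–25%, <10%).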

Cn1nc(C2CCC(=O)NC2=O)c2ccc(OCC(=O)N3CCN(CCCCOc4ccc([C@@H]5c6ccc(O)cc6CC[C@@H]5c5ccccc5)cc4)CC3)cc21 (stereo partly drawn) [Compound B2, 3-(6-(2-(4-(4-(4-((1R,2S)-6-hydroxy-2-phenyl-1,2,3,4-tetrahydronaphthalen-1-yl)phenoxy)butyl)piperazin-1-yl)-2-oxoethoxy)-1-methyl-1H-indazol-3-yl)piperidine-2,6-dione]
IC50 (MCF7 cells): 0.25 nM
IC50 (T47D cells): 0.01 nM
ERα Protein Degradation 1 nM (ERα): B (a percentage degradation value of less than 50% and no less than 25%)
ERα Protein Degradation 10 nM (ERα): B (a percentage degradation value of less than 50% and no less than 25%)
ERα Protein Degradation 100 nM (ERα): C (a percentage degradation value of less than 25% and no less than 10%)

O=C1CCN(c2cccc(OCC(=O)N3CCN(CCCCOc4ccc([C@@H]5c6ccc(O)cc6CC[C@@H]5c5ccccc5)cc4)CC3)c2)C(=O)N1 [Compound B9, 1-(3-(2-(4-(4-(4-((1R,2S)-6-hydroxy-2-phenyl-1,2,3,4-tetrahydronaphthalen-1-yl)phenoxy)butyl)piperazin-1-yl)-2-oxoethoxy)phenyl)dihydropyrimidine-2,4(1H,3H)-dione]
IC50 (MCF7 cells): 1.7 nM
IC50 (T47D cells): 0.49 nM
ERα Protein Degradation 1 nM (ERα): D (a percentage degradation value of less than 10%)
ERα Protein Degradation 10 nM (ERα): D (a percentage degradation value of less than 10%)
ERα Protein Degradation 100 nM (ERα): D (a percentage degradation value of less than 10%)

O=C1CCC(N2Cc3cc(C4CCN(CC5CCN(c6ccc([C@@H]7c8ccc(O)cc8CC[C@@H]7c7ccccc7)cc6)CC5)CC4)c(F)cc3C2=O)C(=O)N1 (stereo partly drawn) [Compound A6, 3-(6-fluoro-5-(1-((1-(4-((1R,2S)-6-hydroxy-2-phenyl-1,2,3,4-tetrahydro-naphthalen-1-yl)phenyl)piperidin-4-yl)methyl)piperidin-4-yl)-1-oxoisoindolin-2-yl)piperidine-2,6-dione]
IC50 (MCF7 cells): 4 nM
IC50 (T47D cells): 0.47 nM
ERα Protein Degradation 1 nM (ERα): B (a percentage degradation value of less than 50% and no less than 25%)
ERα Protein Degradation 10 nM (ERα): B (a percentage degradation value of less than 50% and no less than 25%)
ERα Protein Degradation 100 nM (ERα): D (a percentage degradation value of less than 10%)

O=C1CC[C@@H](N2Cc3cc(N4CCN(CC5CCN(c6ccc(C7c8ccc(O)cc8CC[C@@H]7c7ccccc7)cc6)CC5)CC4)ccc3C2=O)C(=O)N1 (stereo in doubt) [Compound A15, (R)-3-(5-(4-((1-(4-((1R,2S)-6-Hydroxy-2-phenyl-1,2,3,4-tetrahydronaphthalen-1-yl)phenyl)piperidin-4-yl)methyl)piperazin-1-yl)-1-oxoisoindolin-2-yl)piperidine-2,6-dione]
IC50 (MCF7 cells): 1.2 nM
IC50 (T47D cells): 0.96 nM
ERα Protein Degradation 1 nM (ERα): D (a percentage degradation value of less than 10%)
ERα Protein Degradation 10 nM (ERα): C (a percentage degradation value of less than 25% and no less than 10%)
ERα Protein Degradation 100 nM (ERα): D (a percentage degradation value of less than 10%)

O=C1CCC(N2Cc3c(cc(F)cc3C3CCN(CCCCOc4ccc([C@@H]5c6ccc(O)cc6CC[C@@H]5c5ccccc5)cc4)CC3)C2=O)C(=O)N1 (stereo partly drawn) [Compound A1, 3-(6-fluoro-4-(1-(4-(4-((1R,2S)-6-hydroxy-2-phenyl-1,2,3,4-tetrahydro-naphthalen-1-yl)phenoxy)butyl)piperidin-4-yl)-1-oxoisoindolin-2-yl)piperidine-2,6-dione]
IC50 (MCF7 cells): < 0.01 nM
IC50 (T47D cells): 0.24 nM
ERα Protein Degradation 1 nM (ERα): C (a percentage degradation value of less than 25% and no less than 10%)
ERα Protein Degradation 10 nM (ERα): C (a percentage degradation value of less than 25% and no less than 10%)
ERα Protein Degradation 100 nM (ERα): B (a percentage degradation value of less than 50% and no less than 25%)

Cc1c(-c2ccc(O)cc2)n(Cc2ccc(N3CCC(CN4CCN(c5ccc6c(c5)CN(C5CCC(=O)NC5=O)C6=O)CC4)CC3)cc2)c2ccc(O)cc12 (centres unmarked) [Compound E4, 3-(5-(4-((1-(4-((5-hydroxy-2-(4-hydroxyphenyl)-3-methyl-1H-indol-1-yl)-methyl)phenyl)piperidin-4-yl)methyl)piperazin-1-yl)-1-oxoisoindolin-2-yl)piperidine-2,6-dione]
IC50 (MCF7 cells): 0.38 nM
IC50 (T47D cells): 0.17 nM
ERα Protein Degradation 1 nM (ERα): B (a percentage degradation value of less than 50% and no less than 25%)
ERα Protein Degradation 10 nM (ERα): B (a percentage degradation value of less than 50% and no less than 25%)
ERα Protein Degradation 100 nM (ERα): C (a percentage degradation value of less than 25% and no less than 10%)

Cc1c(-c2ccc(O)cc2)n(Cc2ccc(OCCCCN3CCN(C(=O)COc4ccc5c(c4)CN(C4CCC(=O)NC4=O)C5=O)CC3)cc2)c2ccc(O)cc12 (centres unmarked) [Compound E3, 3-(5-(2-(4-(4-(4-((5-Hydroxy-2-(4-hydroxyphenyl)-3-methyl-1H-indol-1-yl)-methyl)phenoxy)butyl)piperazin-1-yl)-2-oxoethoxy)-1-oxoisoindolin-2-yl)piperidine-2,6-dione]
IC50 (MCF7 cells): 4.5 nM
IC50 (T47D cells): 3.2 nM
ERα Protein Degradation 1 nM (ERα): B (a percentage degradation value of less than 50% and no less than 25%)
ERα Protein Degradation 10 nM (ERα): B (a percentage degradation value of less than 50% and no less than 25%)
ERα Protein Degradation 100 nM (ERα): B (a percentage degradation value of less than 50% and no less than 25%)

O=C1CCC(c2cccc(OCC(=O)N3CCN(CCCCOc4ccc([C@@H]5c6ccc(O)cc6CC[C@@H]5c5ccccc5)cc4)CC3)c2)C(=O)N1 (stereo partly drawn) [Compound B5, 3-(3-(2-(4-(4-(4-((1R,2S)-6-hydroxy-2-phenyl-1,2,3,4-tetrahydronaphthalen-1-yl)phenoxy)butyl)piperazin-1-yl)-2-oxoethoxy)phenyl)piperidine-2,6-dione]
IC50 (MCF7 cells): 1.2 nM
IC50 (T47D cells): 0.48 nM
ERα Protein Degradation 1 nM (ERα): D (a percentage degradation value of less than 10%)
ERα Protein Degradation 10 nM (ERα): D (a percentage degradation value of less than 10%)
ERα Protein Degradation 100 nM (ERα): D (a percentage degradation value of less than 10%)

O=C1CCC(N2Cc3c(csc3C3CCN(CC4CCN(c5ccc([C@@H]6c7ccc(O)cc7CC[C@@H]6c6ccccc6)cc5)CC4)CC3)C2=O)C(=O)N1 (stereo partly drawn) [Compound A7, 3-(1-(1-((1-(4-((1R,2S)-6-hydroxy-2-phenyl-1,2,3,4-tetrahydronaphthalen-1-yl)phenyl)piperidin-4-yl)methyl)piperidin-4-yl)-4-oxo-4H-thieno[3,4-c]pyrrol-5(6H)-yl)-piperidine-2,6-dione]
IC50 (MCF7 cells): 145 nM
IC50 (T47D cells): 0.18 nM
ERα Protein Degradation 1 nM (ERα): D (a percentage degradation value of less than 10%)
ERα Protein Degradation 10 nM (ERα): D (a percentage degradation value of less than 10%)
ERα Protein Degradation 100 nM (ERα): D (a percentage degradation value of less than 10%)

O=C1CCC(N2Cc3c(csc3C3CCN(CCCCOc4ccc([C@@H]5c6ccc(O)cc6CC[C@@H]5c5ccccc5)cc4)CC3)C2=O)C(=O)N1 (stereo partly drawn) [Compound A19, 3-(1-(1-(4-(4-((1R,2S)-6-Hydroxy-2-phenyl-1,2,3,4-tetrahydronaphthalen-1-yl)-phenoxy)butyl)piperidin-4-yl)-4-oxo-4H-thieno[3,4-c]pyrrol-5(6H)-yl)piperidine-2,6-dione]
IC50 (MCF7 cells): 2.2 nM
IC50 (T47D cells): 0.07 nM
ERα Protein Degradation 1 nM (ERα): D (a percentage degradation value of less than 10%)
ERα Protein Degradation 10 nM (ERα): D (a percentage degradation value of less than 10%)
ERα Protein Degradation 100 nM (ERα): D (a percentage degradation value of less than 10%)
